Assay results taken from the supplement of paper PMC10307832.

Key:
Assay in all cases: relative viability (nuclei count vs DMSO), 5 days (fraction); higher = more cells survive
[1] = compound: C1CSC2=C(C(=O)N1)SC3=C2C=C(C=C3)O [kb NB 142-70] + CC(=O)Nc1cccc(-n2c(=O)n(C3CC3)c(=O)c3c(Nc4ccc(I)cc4F)n(C)c(=O)c(C)c32)c1 [Trametinib] (partner 0.02 µM)
Outline: (§1)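 Lung cancer cell lines, seeded in 1536-well plates, were treated the following day by pin tool with a single drug or with five library-drug doses (not always all listed) in √10 steps on top of a fixed anchor-drug dose. Cells were fixed and nuclei stained in one step after 5 days, and nuclei were counted. Relative viability is the nuclei count for treated wells divided by that for vehicle wells, reported as medians of duplicate plates.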

[2] = compound: C1CSC2=C(C(=O)N1)SC3=C2C=C(C=C3)O [kb NB 142-70] + CS(=O)(=O)N1CCN(Cc2cc3nc(-c4cccc5[nH]ncc45)nc(N4CCOCC4)c3s2)CC1 [Pictilisib] (partner 1 µM)
Outline: as §1

[3] = compound: C1CSC2=C(C(=O)N1)SC3=C2C=C(C=C3)O [kb NB 142-70] + Nc1ncn([C@H]2C[C@H](O)[C@@H](CO)O2)c(=O)n1 [Decitabine] (partner 2 µM)
Outline: as §1

[4] = compound: NCC(=O)Nc1ccc(-n2nc(C(F)(F)F)cc2-c2ccc3c(ccc4ccccc43)c2)cc1 + CC1(C)CCC(c2ccc(Cl)cc2)=C(CN2CCN(c3ccc(C(=O)NS(=O)(=O)c4ccc(N[C@H](CCN5CCOCC5)CSc5ccccc5)c(S(=O)(=O)C(F)(F)F)c4)cc3)CC2)C1 [Navitoclax] (partner 0.5 µM)
Outline: as §1

[5] = compound: NCC(=O)Nc1ccc(-n2nc(C(F)(F)F)cc2-c2ccc3c(ccc4ccccc43)c2)cc1 + Cc1nc(Nc2ncc(C(=O)Nc3c(C)cccc3Cl)s2)cc(N2CCN(CCO)CC2)n1 [Dasatinib] (partner 0.075 µM)
Outline: as §1

For NCI-H322M, the relative viability ([1]; first compound 0.1 µM) was 0.51, the relative viability ([1]; first compound 1 µM) was 0.525 and the relative viability ([1]; first compound 3.162 µM) was 0.598. The relative viability ([2]; first compound 0.1 µM) was 0.54, the relative viability ([2]; first compound 1 µM) was 0.561 and the relative viability ([2]; first compound 3.162 µM) was 0.504. The relative viability ([3]; first compound 0.1 µM) was 0.675, the relative viability ([3]; first compound 1 µM) was 0.72 and the relative viability ([3]; first compound 3.162 µM) was 0.616. For the same cell line, the relative viability ([4]; first compound 0.02 µM) was 1.18, the relative viability ([4]; first compound 0.06325 µM) was 1.18 and the relative viability ([4]; first compound 0.2 µM) was 1.34. It also gave a relative viability ([4]; first compound 0.6325 µM) of 1.18, a relative viability ([4]; first compound 2 µM) of 1.1 and a relative viability ([5]; first compound 0.02 µM) of 0.268. For the same cell line, the relative viability ([5]; first compound 0.06325 µM) was 0.266, the relative viability ([5]; first compound 0.2 µM) was 0.251 and the relative viability ([5]; first compound 0.6325 µM) was 0.271. For the same cell line, the relative viability ([5]; first compound 2 µM) was 0.261.
NCI-H838 showed a relative viability ([1]; first compound 0.1 µM) of 0.546, a relative viability ([1]; first compound 1 µM) of 0.525 and a relative viability ([1]; first compound 3.162 µM) of 0.532. It also gave a relative viability ([2]; first compound 0.1 µM) of 0.444, a relative viability ([2]; first compound 1 µM) of 0.447 and a relative viability ([2]; first compound 3.162 µM) of 0.424. For the same cell line, the relative viability ([3]; first compound 0.1 µM) was 0.431, the relative viability ([3]; first compound 1 µM) was 0.454 and the relative viability ([3]; first compound 3.162 µM) was 0.427. The relative viability ([4]; first compound 0.02 µM) was 1.19, the relative viability ([4]; first compound 0.06325 µM) was 1.12 and the relative viability ([4]; first compound 0.2 µM) was 1.34. The relative viability ([4]; first compound 0.6325 µM) was 1, the relative viability ([4]; first compound 2 µM) was 1 and the relative viability ([5]; first compound 0.02 µM) was 0.233. For the same cell line, the relative viability ([5]; first compound 0.06325 µM) was 0.305, the relative viability ([5]; first compound 0.2 µM) was 0.273 and the relative viability ([5]; first compound 0.6325 µM) was 0.302. For the same cell line, the relative viability ([5]; first compound 2 µM) was 0.285.
NCI-H1648 was tested, and the relative viability ([1]; first compound 0.1 µM) was 0.459, the relative viability ([1]; first compound 1 µM) was 0.551 and the relative viability ([1]; first compound 3.162 µM) was 0.417. For the same cell line, the relative viability ([3]; first compound 0.1 µM) was 0.452, the relative viability ([3]; first compound 1 µM) was 0.435 and the relative viability ([3]; first compound 3.162 µM) was 0.493.
NCI-H650 was tested, and the relative viability ([1]; first compound 0.1 µM) was 0.939, the relative viability ([1]; first compound 1 µM) was 1.22 and the relative viability ([1]; first compound 3.162 µM) was 0.895. The relative viability ([2]; first compound 0.1 µM) was 1.05, the relative viability ([2]; first compound 1 µM) was 0.94 and the relative viability ([2]; first compound 3.162 µM) was 0.756. For the same cell line, the relative viability ([3]; first compound 0.1 µM) was 0.309, the relative viability ([3]; first compound 1 µM) was 0.283 and the relative viability ([3]; first compound 3.162 µM) was 0.267. It also gave a relative viability ([5]; first compound 0.02 µM) of 0.4, a relative viability ([5]; first compound 0.06325 µM) of 0.479 and a relative viability ([5]; first compound 0.2 µM) of 0.434. The relative viability ([5]; first compound 0.6325 µM) was 0.377 and the relative viability ([5]; first compound 2 µM) was 0.459.
Cell Line HCC-44 has a relative viability ([1]; first compound 0.1 µM) of 1.06, a relative viability ([1]; first compound 1 µM) of 1.06 and a relative viability ([1]; first compound 3.162 µM) of 1.1. For the same cell line, the relative viability ([2]; first compound 0.1 µM) was 0.566, the relative viability ([2]; first compound 1 µM) was 0.622 and the relative viability ([2]; first compound 3.162 µM) was 0.646. For the same cell line, the relative viability ([3]; first compound 0.1 µM) was 0.946, the relative viability ([3]; first compound 1 µM) was 0.993 and the relative viability ([3]; first compound 3.162 µM) was 1.01. The relative viability ([4]; first compound 0.02 µM) was 0.866, the relative viability ([4]; first compound 0.06325 µM) was 0.942 and the relative viability ([4]; first compound 0.2 µM) was 1.02. The relative viability ([4]; first compound 0.6325 µM) was 0.958 and the relative viability ([4]; first compound 2 µM) was 0.944.
For A549, the relative viability ([2]; first compound 0.1 µM) was 0.474, the relative viability ([2]; first compound 1 µM) was 0.498 and the relative viability ([2]; first compound 3.162 µM) was 0.114. It also gave a relative viability ([3]; first compound 0.1 µM) of 0.24, a relative viability ([3]; first compound 1 µM) of 0.245 and a relative viability ([3]; first compound 3.162 µM) of 0.233. The relative viability ([4]; first compound 0.02 µM) was 1.24, the relative viability ([4]; first compound 0.06325 µM) was 1.19 and the relative viability ([4]; first compound 0.2 µM) was 1.24. It also gave a relative viability ([4]; first compound 0.6325 µM) of 1.17 and a relative viability ([4]; first compound 2 µM) of 0.7.
With NCI-H358 the relative viability ([1]; first compound 0.1 µM) was 0.117, the relative viability ([1]; first compound 1 µM) was 0.103 and the relative viability ([1]; first compound 3.162 µM) was 0.105. The relative viability ([2]; first compound 0.1 µM) was 0.35, the relative viability ([2]; first compound 1 µM) was 0.3 and the relative viability ([2]; first compound 3.162 µM) was 0.189. It also gave a relative viability ([3]; first compound 0.1 µM) of 0.226, a relative viability ([3]; first compound 1 µM) of 0.148 and a relative viability ([3]; first compound 3.162 µM) of 0.0899. It also gave a relative viability ([5]; first compound 0.02 µM) of 0.165, a relative viability ([5]; first compound 0.06325 µM) of 0.138 and a relative viability ([5]; first compound 0.2 µM) of 0.153. The relative viability ([5]; first compound 0.6325 µM) was 0.173 and the relative viability ([5]; first compound 2 µM) was 0.189.
For NCI-H1563, the relative viability ([2]; first compound 0.1 µM) was 0.654, the relative viability ([2]; first compound 1 µM) was 0.674 and the relative viability ([2]; first compound 3.162 µM) was 0.634. It also gave a relative viability ([5]; first compound 0.02 µM) of 0.47, a relative viability ([5]; first compound 0.06325 µM) of 0.479 and a relative viability ([5]; first compound 0.2 µM) of 0.477. The relative viability ([5]; first compound 0.6325 µM) was 0.469 and the relative viability ([5]; first compound 2 µM) was 0.525.
NCI-H522 gave a relative viability ([1]; first compound 0.1 µM) of 0.799, a relative viability ([1]; first compound 1 µM) of 0.617 and a relative viability ([1]; first compound 3.162 µM) of 0.566. The relative viability ([3]; first compound 0.1 µM) was 0.61, the relative viability ([3]; first compound 1 µM) was 0.698 and the relative viability ([3]; first compound 3.162 µM) was 0.581. The relative viability ([5]; first compound 0.06325 µM) was 0.831, the relative viability ([5]; first compound 0.2 µM) was 0.874 and the relative viability ([5]; first compound 0.6325 µM) was 0.854. It also gave a relative viability ([5]; first compound 2 µM) of 0.921.
IA-LM was tested, and the relative viability ([2]; first compound 0.1 µM) was 0.412, the relative viability ([2]; first compound 1 µM) was 0.529 and the relative viability ([2]; first compound 3.162 µM) was 0.51. The relative viability ([4]; first compound 0.02 µM) was 0.814, the relative viability ([4]; first compound 0.06325 µM) was 0.808 and the relative viability ([4]; first compound 0.2 µM) was 0.898. The relative viability ([4]; first compound 0.6325 µM) was 0.86 and the relative viability ([4]; first compound 2 µM) was 0.827.
NCI-H1703 gave a relative viability ([2]; first compound 0.1 µM) of 0.249, a relative viability ([2]; first compound 1 µM) of 0.286 and a relative viability ([2]; first compound 3.162 µM) of 0.255. The relative viability ([4]; first compound 0.02 µM) was 1.07, the relative viability ([4]; first compound 0.06325 µM) was 1.06 and the relative viability ([4]; first compound 0.2 µM) was 1.35. The relative viability ([4]; first compound 0.6325 µM) was 1 and the relative viability ([4]; first compound 2 µM) was 1.51.
Cell Line LCLC-103H has a relative viability ([1]; first compound 0.1 µM) of 0.672, a relative viability ([1]; first compound 1 µM) of 0.654 and a relative viability ([1]; first compound 3.162 µM) of 0.803. The relative viability ([2]; first compound 0.1 µM) was 0.631, the relative viability ([2]; first compound 1 µM) was 0.652 and the relative viability ([2]; first compound 3.162 µM) was 0.638. The relative viability ([3]; first compound 0.1 µM) was 0.75, the relative viability ([3]; first compound 1 µM) was 0.737 and the relative viability ([3]; first compound 3.162 µM) was 0.773. It also gave a relative viability ([5]; first compound 0.02 µM) of 0.439, a relative viability ([5]; first compound 0.06325 µM) of 0.458 and a relative viability ([5]; first compound 0.2 µM) of 0.485. For the same cell line, the relative viability ([5]; first compound 0.6325 µM) was 0.465 and the relative viability ([5]; first compound 2 µM) was 0.433.
For SW 900, the relative viability ([1]; first compound 0.1 µM) was 0.73, the relative viability ([1]; first compound 1 µM) was 1.05 and the relative viability ([1]; first compound 3.162 µM) was 0.682. For the same cell line, the relative viability ([3]; first compound 0.1 µM) was 0.473, the relative viability ([3]; first compound 1 µM) was 0.4 and the relative viability ([3]; first compound 3.162 µM) was 0.418. The relative viability ([5]; first compound 0.06325 µM) was 0.69, the relative viability ([5]; first compound 0.2 µM) was 0.852 and the relative viability ([5]; first compound 0.6325 µM) was 0.515. For the same cell line, the relative viability ([5]; first compound 2 µM) was 0.592.
